Results reported in US7655629B2, “Peptides and their use for the treatment of HIV infections” (priority 2002, dated 2010).
pIC50: −log10 of the molar value. Read-outs that look alike come from different tables or passages of the source. Positions of bridges follow the written chain, without caps; N, C: chain ends. Non-standard residues stand in square brackets, D forms with d. Residues, ends and D or L forms follow the SMILES beside them. Tic = O=C(O)[C@@H]1Cc2ccccc2CN1; dTic = O=C(O)[C@H]1Cc2ccccc2CN1

Tests used:
[1] = test system: X4-tropic HIV-1 NL4-3; conditions: read-out: IC50 NL4-3; P4-CCR5 cells, HIV-1 NL4-3, peptide 2 h before infection, readout three days after infection
In short: (§1)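 P4-CCR5 cells (CD4, CCR5, CXCR4, HIV-1 promoter-driven β-galactosidase) pretreated 2 h with peptide, then infected with virus containing 1 ng p24 antigen and incubated overnight. Cells washed and cultured without peptide; three days post-infection infectivity read by chemiluminescent β-galactosidase assay, in quintuplicate.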

[2] = test system: HIV-1 NL4-3 DTV; conditions: read-out: IC50 DTV, P4-CCR5 cells, peptide 2 h before infection, readout three days after infection
In short: as §1

[3] = human, plasma
[4] = rat, plasma
[5] = dog, plasma
[6] = cynomolgus monkey, plasma

Compound | pIC50 [1] | pIC50 [2] | half-life [3] [h] | half-life [4] [h] | half-life [5] [h] | half-life [6] [h]
CC[C@H](C)[C@H](NC(=O)[C@@H]1CCCN1C(=O)[C@@H](NC(=O)[C@H](CCCCN)NC(=O)[C@H](CCC(=O)O)NC(=O)[C@@H](N)CC(C)C)[C@@H](C)CC)C(=O)NCC(=O)N[C@H](C(=O)N1CCC[C@H]1C(=O)N1CCC[C@@H]1C(=O)N[C@@H](CCC(=O)O)C(=O)N[C@H](C(=O)N1Cc2ccccc2C[C@@H]1C(=O)N[C@@H](Cc1ccccc1)C(=O)N[C@@H](CC(N)=O)C(=O)N[C@@H](CCCCN)C(=O)N1CCC[C@H]1C(=O)N[C@@H](Cc1ccccc1)C(=O)N[C@H](C(=O)N[C@@H](Cc1ccccc1)C(=O)O)C(C)C)C(C)C)[C@@H](C)CC [VIR-483, LEKIPIGIPpEV(D-Tic)FNKPFVF] (H-LEKIPIGIP[dP]EV[dTic]FNKPFVF-OH) | 6.12 | 6.06 | 2.6 | 0.2 | 6.2 | 2.2
CC[C@H](C)[C@H](NC(=O)[C@H](C)NC(=O)[C@H](CCC(=O)O)NC(=O)[C@@H](N)CC(C)C)C(=O)N1CCC[C@H]1C(=O)N[C@@H](CCSC)C(=O)NCC(=O)N[C@H](C(=O)N1CCC[C@H]1C(=O)N1CCC[C@@H]1C(=O)N[C@@H](CCC(=O)O)C(=O)N[C@H](C(=O)N1Cc2ccccc2C[C@@H]1C(=O)N[C@@H](Cc1ccccc1)C(=O)N[C@@H](CC(N)=O)C(=O)N[C@@H](CCCCN)C(=O)N1CCC[C@H]1C(=O)N[C@@H](Cc1ccccc1)C(=O)N[C@H](C(=O)N[C@@H](Cc1ccccc1)C(=O)O)C(C)C)C(C)C)[C@@H](C)CC [VIR-448, LEAIPMGIPpEV(D-Tic)FNKPFVF] (H-LEAIPMGIP[dP]EV[dTic]FNKPFVF-OH) | 6.50 | 6.49 | 3.1 | 0.2 | 18 | 4.5
CC[C@H](C)[C@H](NC(=O)[C@H](C)NC(=O)[C@H](CCC(=O)O)NC(=O)[C@@H](N)CC(C)C)C(=O)N1CCC[C@H]1C(=O)N[C@H]1CSSC[C@@H](C(=O)N[C@H](C(=O)N[C@@H](Cc2ccccc2)C(=O)N[C@@H](Cc2ccccc2)C(=O)NCC(=O)N[C@@H](CCCCN)C(=O)N2CCC[C@H]2C(=O)N[C@@H](Cc2ccccc2)C(=O)N[C@H](C(=O)N[C@@H](Cc2ccccc2)C(=O)O)C(C)C)C(C)C)NC(=O)[C@@H]2CCCN2C(=O)[C@@H]2CCCN2C(=O)[C@H]([C@@H](C)CC)NC(=O)[C@H](CO)NC1=O [VIR-344] (H-LEAIPCSIPPCVFFGKPFVF-OH; disulfide 6-11) | 6.46 | 6.35 | 7 | 0.1 | 6.6 | 10.5
CC[C@H](C)[C@H](NC(=O)[C@H](C)NC(=O)[C@H](CCC(=O)O)NC(=O)[C@@H](N)CC(C)C)C(=O)N1CCC[C@H]1C(=O)N[C@H]1CSSC[C@@H](C(=O)N[C@@H](Cc2ccccc2)C(=O)N[C@@H](CC(C)C)C(=O)N[C@@H](Cc2ccccc2)C(=O)N[C@@H](CC(N)=O)C(=O)N[C@@H](CCCCN)C(=O)N2CCC[C@H]2C(=O)N[C@@H](Cc2ccccc2)C(=O)N[C@H](C(=O)N[C@@H](Cc2ccccc2)C(=O)O)C(C)C)NC(=O)[C@H]2CCCN2C(=O)[C@@H]2CCCN2C(=O)[C@H]([C@@H](C)CC)NC(=O)[C@H](CO)NC1=O [VIR-353, LEAIPCSIPpCFLFNKPFVF] (H-LEAIPCSIP[dP]CFLFNKPFVF-OH; disulfide 6-11) | 6.65 | 6.74 | 4 | 0.2 | 15.2 | 5
CC[C@H](C)[C@H](NC(=O)[C@H](C)NC(=O)[C@H](CCC(=O)O)NC(=O)[C@@H](N)CC(C)C)C(=O)N1CCC[C@H]1C(=O)N[C@@H](CCSC)C(=O)N[C@H]1CSSC[C@@H](C(=O)N[C@@H](CC(C)C)C(=O)N[C@@H](Cc2ccccc2)C(=O)NCC(=O)N[C@@H](CCCCN)C(=O)N2CCC[C@H]2C(=O)N[C@@H](Cc2ccccc2)C(=O)N[C@H](C(=O)N[C@@H](Cc2ccccc2)C(=O)O)C(C)C)NC(=O)[C@H](CCC(=O)O)NC(=O)[C@@H]2CCCN2C(=O)[C@@H]2CCCN2C(=O)[C@H]([C@@H](C)CC)NC1=O [VIR-274] (H-LEAIPMCIPPECLFGKPFVF-OH; disulfide 7-12) | 6.24 | 5.85 | 2 | 0.1 | 9.5 | 2.8
CC[C@H](C)[C@H](NC(=O)[C@H](C)NC(=O)[C@H](CCC(=O)O)NC(=O)[C@@H](N)CC(C)C)C(=O)N1CCC[C@H]1C(=O)N[C@H]1CSSC[C@@H](C(=O)N[C@H](C(=O)N[C@@H](C)C(=O)N2Cc3ccccc3C[C@@H]2C(=O)N[C@@H](CC(N)=O)C(=O)N[C@@H](CCCCN)C(=O)N2CCC[C@H]2C(=O)N2Cc3ccccc3C[C@@H]2C(=O)N[C@@H](Cc2ccccc2)C(=O)N[C@H](C(=O)N[C@@H](Cc2ccccc2)C(=O)O)C(C)C)C(C)C)NC(=O)[C@@H]2CCCN2C(=O)[C@@H]2CCCN2C(=O)[C@H]([C@@H](C)CC)NC(=O)[C@H](CO)NC1=O [VIR-166, LEAIPCSIPPCVA(D-Tic)NKP(D-Tic)FVF] (H-LEAIPCSIPPCVA[dTic]NKP[dTic]FVF-OH; disulfide 6-11) | 6.45 | 6.30 | 7.6 | 0.4 | 11 | 12.1
CC[C@H](C)[C@H](NC(=O)[C@H](C)NC(=O)[C@H](CCC(=O)O)NC(=O)[C@@H](N)CC(C)C)C(=O)N1CCC[C@H]1C(=O)N[C@@H](CCSC)C(=O)NCC(=O)N[C@H](C(=O)N1CCC[C@H]1C(=O)N1CCC[C@@H]1C(=O)N[C@@H](CCC(=O)O)C(=O)N[C@H](C(=O)N1Cc2ccccc2C[C@H]1C(=O)N[C@@H](Cc1ccccc1)C(=O)N[C@@H](CC(N)=O)C(=O)N[C@@H](CCCCN)C(=O)N1CCC[C@H]1C(=O)N[C@@H](Cc1ccccc1)C(=O)N[C@H](C(=O)N[C@@H](Cc1ccccc1)C(=O)O)C(C)C)C(C)C)[C@@H](C)CC [VIR-449, LEAIPMGIPpEV(L-Tic)FNKPFVF] (H-LEAIPMGIP[dP]EV[Tic]FNKPFVF-OH) | 6.56 | 6.62 | 4.8 | 0.2 | 42.2 | 4.2
CC[C@H](C)[C@H](NC(=O)[C@H](C)NC(=O)[C@H](CCC(=O)O)NC(=O)[C@@H](N)CC(C)C)C(=O)N1CCC[C@H]1C(=O)N[C@H]1CSSC[C@@H](C(=O)N[C@H](C(=O)N[C@@H](Cc2ccccc2)C(=O)N[C@@H](Cc2ccccc2)C(=O)N[C@@H](CC(N)=O)C(=O)N[C@@H](CCCCN)C(=O)N2CCC[C@H]2C(=O)N[C@@H](Cc2ccccc2)C(=O)N[C@H](C(=O)N[C@@H](Cc2ccccc2)C(=O)O)C(C)C)C(C)C)NC(=O)[C@H]2CCCN2C(=O)[C@@H]2CCCN2C(=O)[C@H]([C@@H](C)CC)NC(=O)[C@H](CO)NC1=O [VIR-352, LEAIPCSIPpCVFFNKPFVF] (H-LEAIPCSIP[dP]CVFFNKPFVF-OH; disulfide 6-11) | 6.47 | 6.20 | 3.6 | 0.2 | 23.7 | 6.4
CC[C@H](C)[C@H](NC(=O)[C@@H]1CCCN1C(=O)[C@@H](NC(=O)[C@H](CCCCN)NC(=O)[C@H](CCC(=O)O)NC(=O)[C@@H](N)CC(C)C)[C@@H](C)CC)C(=O)NCC(=O)N[C@H](C(=O)N1CCC[C@H]1C(=O)N1CCC[C@@H]1C(=O)N[C@@H](CCC(=O)O)C(=O)N[C@H](C(=O)N1Cc2ccccc2C[C@H]1C(=O)N[C@@H](Cc1ccccc1)C(=O)N[C@@H](CC(N)=O)C(=O)N[C@@H](CCCCN)C(=O)N1CCC[C@H]1C(=O)N[C@@H](Cc1ccccc1)C(=O)N[C@H](C(=O)N[C@@H](Cc1ccccc1)C(=O)O)C(C)C)C(C)C)[C@@H](C)CC [VIR-484, LEKIPIGIPpEV(L-Tic)FNKPFVF] (H-LEKIPIGIP[dP]EV[Tic]FNKPFVF-OH) | 7.00 | 6.47 | 5 | 0.2 | 12.4 | 3.6
CC[C@H](C)[C@H](NC(=O)[C@H](CCCCN)NC(=O)[C@H](CCC(=O)O)NC(=O)[C@@H](N)CC(C)C)C(=O)N1CCC[C@H]1C(=O)N[C@H]1CSSC[C@@H](C(=O)N[C@H](C(=O)N[C@@H](C)C(=O)N[C@@H](Cc2ccccc2)C(=O)N[C@@H](CC(N)=O)C(=O)N[C@@H](CCCCN)C(=O)N2CCC[C@H]2C(=O)N[C@@H](Cc2ccccc2)C(=O)N[C@H](C(=O)N[C@@H](Cc2ccccc2)C(=O)O)C(C)C)C(C)C)NC(=O)[C@H]2CCCN2C(=O)[C@@H]2CCCN2C(=O)[C@H]([C@@H](C)CC)NC(=O)[C@H](CO)NC1=O [VIR-358, LEKIPCSIPpCVAFNKPFVF] (H-LEKIPCSIP[dP]CVAFNKPFVF-OH; disulfide 6-11) | 6.15 | 6.03 | 5.9 | 0.4 | 16 | 4.7
